The text below walks through data of patent publication US9834556B2, “Process of preparing 3-(3-(4-aminocyclobutyl)phenyl)-5-phenyl-3H-imidazo[4,5-B]pyridin-2-YL)pyridin-2-amine” (ARQULE, INC., priority 2014, dated 2017).

Common to all, as to assay type: physicochemical
What all share (settings): organic solvent or mixture

Data set [1] is described as follows: Solubility of 3 in 2-MeTHF/heptane mixtures. The procedure:
A series of experiments were performed to test the solubility of 3 in a mixture of 2-MeTHF and heptane.

Data set [2] is described as follows: Solubility of 3 in HOAc, 2-MeTHF and THF. On the procedure: Although the reaction was high yielding, the amount of solvent required to perform the reaction limited the throughput due to the poor solubility of 3 in EtOAc. It was therefore desirable to find an alternate solvent for this reaction to prevent the risk of poor conversion while increasing the volume efficiency. To address this issue, the solubility of 3 was evaluated in HOAc and THF in addition to 2-MeTHF. […] In one embodiment, THF is used for the hydrogenation reaction. In another embodiment, 2-MeTHF is used for the hydrogenation reaction. […] In one embodiment, when the hydrogenation reaction was run at 40 psi hydrogen pressure at 40° C., the reaction was typically complete in 2 to 3 hours. The final variable which was investigated was catalyst loading. The initial 10 wt % loading was reduced to 5 wt % without any decrease in reaction time, yield or purity.

Data set [3] can be described thus: Solubility of 6 in extraction solvents. On the procedure:
While this initial trial was very promising, in subsequent experiments on larger scale, complications were encountered. One issue was that during the neutralization of acetic acid, emulsions were often obtained. Multiple solvent systems were investigated and the solubility of 6 was evaluated to estimate the efficiency of the extraction (Table 17).

Data set [4] in a line: Solubility of 7 in a selection of solvents. The source says: Isolation of 7 from the MSA aqueous layer was completed by addition of DCM followed by basification with aqueous NaOH to extract the 7 free base into the DCM layer. […] Isolation from the DCM solution was developed by concentrating the volume of the DCM to induce crystallization followed by the addition of heptane as an anti-solvent. […] Possible solvents candidates which could be used to efficiently extract 7 were limited to DCM due to the poor solubility of 7 in a variety of common solvents (Table 19).

≈ marks a conversion by molar mass, not a printed value.

As to `CC(C)(C)OC(=O)NC1(c2ccc(Nc3nc(-c4ccccc4)ccc3[N+](=O)[O-])cc2)CCC1` [Compound 3, tert-butyl (1-(4-((3-nitro-6-phenylpyridin-2-yl)amino)phenyl)cyclobutyl)carbamate], the solubility in data set [1] (2-MeTHF/heptane 1/0 (v/v), 2-MeTHF/heptane (v/v) 1/0, 25° C.) came out at 100000 µg/mL (≈ 217 mM); in data set [1] (2-MeTHF/heptane 2/8 (v/v), 2-MeTHF/heptane (v/v) 2/8, 25° C.), 300 µg/mL (≈ 0.651 mM); in data set [1] (2-MeTHF/heptane 3/7 (v/v), 2-MeTHF/heptane (v/v) 3/7, 25° C.) it was 1200 µg/mL (≈ 2.61 mM); in data set [1] (2-MeTHF/heptane 4/6 (v/v), 2-MeTHF/heptane (v/v) 4/6, 25° C.), 3800 µg/mL (≈ 8.25 mM); in data set [1] (2-MeTHF/heptane 5/5 (v/v), 2-MeTHF/heptane (v/v) 5/5, 25° C.), 4500 µg/mL (≈ 9.77 mM); in data set [1] (2-MeTHF/heptane 6/4 (v/v), 2-MeTHF/heptane (v/v) 6/4, 25° C.) it was 8000 µg/mL (≈ 17.4 mM). The solubility in data set [1] (2-MeTHF/heptane 7/3 (v/v), 2-MeTHF/heptane (v/v) 7/3, 25° C.) was 13000 µg/mL (≈ 28.2 mM); in data set [1] (2-MeTHF/heptane 8/2 (v/v), 2-MeTHF/heptane (v/v) 8/2, 25° C.), 23000 µg/mL (≈ 49.9 mM); in data set [1] (2-MeTHF/heptane 9/1 (v/v), 2-MeTHF/heptane (v/v) 9/1, 25° C.), 32000 µg/mL (≈ 69.5 mM); in data set [2] (in 2-MeTHF) it was 100000 µg/mL (≈ 217 mM); in data set [2] (in HOAc), 24800 µg/mL (≈ 53.9 mM); in data set [2] (in THF), 155000 µg/mL (≈ 337 mM).

In the case of `CC(C)(C)OC(=O)NC1(c2ccc(-n3c(-c4cccnc4N)nc4ccc(-c5ccccc5)nc43)cc2)CCC1` [Compound 6, tert-butyl (1-(4-(2-(2-aminopyridin-3-yl)-5-phenyl-3H-imidazo[4,5-b]pyridin-3-yl)phenyl)cyclobutyl)carbamate], the solubility in data set [3] (Solvent 2-MeTHF) came out at 25000 µg/mL (≈ 46.9 mM); in data set [3] (Solvent DCM), 126000 µg/mL (≈ 237 mM); in data set [3] (Solvent EtOAc), 6600 µg/mL (≈ 12.4 mM); in data set [3] (Solvent IPAc) it was 2900 µg/mL (≈ 5.44 mM); in data set [3] (Solvent MTBE), 690 µg/mL (≈ 1.3 mM); in data set [3] (Solvent THF), 110000 µg/mL (≈ 207 mM). In addition, in data set [3] (Solvent Toluene), the solubility worked out at 4500 µg/mL (≈ 8.45 mM).

As to `Nc1ncccc1-c1nc2ccc(-c3ccccc3)nc2n1-c1ccc(C2(N)CCC2)cc1` [Compound 7, 3-(3-(4-(1-aminocyclobutyl)phenyl)-5-phenyl-3H-imidazo[4,5-b]pyridin-2-yl)pyridin-2-amine], the solubility in data set [4] (Solvent 2-MeTHF) stood at 4800 µg/mL (≈ 11.1 mM); in data set [4] (Solvent DCM) it was 73000 µg/mL (≈ 169 mM); in data set [4] (Solvent EtOAc), 5600 µg/mL (≈ 12.9 mM); in data set [4] (Solvent IPAc), 2900 µg/mL (≈ 6.7 mM); in data set [4] (Solvent MTBE) it was 760 µg/mL (≈ 1.76 mM); in data set [4] (Solvent THF) it was 24000 µg/mL (≈ 55.5 mM). The solubility in data set [4] (Solvent Toluene) was determined as 9300 µg/mL (≈ 21.5 mM).
